We go through one substance from patent publication US20130251632A1, “APOPTOSIS PET IMAGING AGENTS” (GE HEALTHCARE LIMITED, priority 2010, published 2013).

This experiment can be described thus: Affinity for phosphatidylethanolamine, Biacore 3000 with L1 chip and captured liposomes. It counts as binding. The settings on record: POPE/POPC liposomes (20% PE). The text has this: A Biacore 3000 (GE Healthcare, Uppsala) was equipped with an L1 chip. Liposomes made of POPE/POPC (20% PE) were applied for the affinity study using the capture technique recommended by the manufacturer. Each run consisted of activation of the chip surface, immobilization of liposomes, binding of peptide and wash off of both liposomes and peptide (regeneration). Similar applications can be found in Frostell-Karlsson et al [Pharm. Sciences, V.94 (1), (2005)]. Thorough washing of needle, tubing and liquid handling system with running buffer was performed after each cycle.
BIACORE software: The BIACORE control software including all method instructions was applied. A method with commands was also written in the BIACORE Method Definition Language (MDL) to have full control over pre-programmed instructions. BIACORE evaluation software was applied for analysing the sensorgrams.

Take duramycin: the “ka” value is around 20000 M⁻¹ s⁻¹.
